Molecules are shown by their SMILES.

One assay deals with T1, full length human TPH1 (Homo sapiens, UniProt P17752).
T1 construct: To generate the enzyme, full length human TPH1 is cloned into the plasmid pET20b(+); made in house; host or cells: E. coli
T1 sequence (P17752 1-444): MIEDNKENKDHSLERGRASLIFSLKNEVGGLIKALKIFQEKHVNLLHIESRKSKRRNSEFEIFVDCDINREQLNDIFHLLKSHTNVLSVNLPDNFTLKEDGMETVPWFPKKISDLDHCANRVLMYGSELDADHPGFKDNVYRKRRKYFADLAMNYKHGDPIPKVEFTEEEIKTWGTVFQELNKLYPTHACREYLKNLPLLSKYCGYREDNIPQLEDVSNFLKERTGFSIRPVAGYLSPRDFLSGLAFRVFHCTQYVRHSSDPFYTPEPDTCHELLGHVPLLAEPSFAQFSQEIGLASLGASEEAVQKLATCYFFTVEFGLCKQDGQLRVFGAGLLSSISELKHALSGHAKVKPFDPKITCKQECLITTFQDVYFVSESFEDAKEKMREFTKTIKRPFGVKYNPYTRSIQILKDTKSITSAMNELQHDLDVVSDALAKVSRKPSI
Put plainly: Biochemical in vitro assay using fluorescence readout (TPH1 enzyme activity). As to conditions: Table 1, mean where determined several times. The text has this:
Inhibitory activities on tryptophan hydroxylase 1 have been measured for each example compound using the following procedure:
Biochemical In Vitro Assay Using Fluorescence Readout
To generate the enzyme, full length human TPH1 is cloned into the plasmid pET20b(+) (Novagen) and expressed in E. coli. The bacterial cells are ruptured by sonication on ice and the lysate is cleared by centrifugation. The resulting protein in the pellet is re-extracted and TPH1 is purified from the obtained lysate by affinity chromatography using a pterin cosubstrate analog immobilized to the resin of the column. The protein is further purified by size exclusion chromatography to remove protein aggregates. The activity of TPH1 is determined by using a fluorescence assay. The enzyme activity assay is carried out at 15° C. with atmosphere oxygen for the duration of 60 minutes in a volume of 64 μl. The reaction is carried out in a 0.1M Tris-HCl buffer, adjusted to pH 7.6, containing 1 mM DTT, 0.2 mg/ml catalase, 100 μM (±)-6-methyl-5,6,7,8-tetrahydropterine dihydrochloride, 40 μM L-tryptophan, and 40-80 nM of TPH1. The reaction is started by bringing together L-tryptophan with all the other reaction substituents and stopped by quenching with perchloric acid (HClO4). The amount of 5-hydroxy-L-tryptophan produced during the enzymatic reaction is determined by fluorescence readout. Fluorescence, as determined at 540 nm when excited at 300 nm wavelength, increases proportionally to the 5-hydroxy-L-tryptophan formed. Compounds are prepared as 10 mM stock solution in DMSO, then diluted in 384-well plates using DMSO followed by a transfer of the dilutions into the assay plate. Fluorescence is measured for each well and the fluorescence at 540 nm wavelength is compared to the fluorescence of the vehicle in place of compound. Inhibitory activities of example compounds with respect to the TPH1 protein are determined by calculating the IC50 value (the concentration of compound needed to inhibit 50% of the enzyme activity). The calculated IC50 values may fluctuate depending on the daily biochemical assay performance. Fluctuations of this kind are known to those skilled in the art. In the case where IC50 values have been determined several times for the same compound, the mean is given.
Take `COc1ccc(C2c3c(nc4n3CCCC4)CCN2C(=O)COc2ccc(C(=O)NC3CC3)nc2Cl)c(F)c1` (centres unmarked) [Example 1.21.1, 6-chloro-N-cyclopropyl-5-(2-(1-(2-fluoro-4-methoxyphenyl)-3,4,6,7,8,9-hexahydroimidazo[1,2-a:5,4-c′]dipyridin-2(1H)-yl)-2-oxoethoxy)picolinamide]: the IC50 is 0.018 µM.

In turn, `O=C(COc1ccc(-c2ncco2)nc1Cl)N1CCc2nc3n(c2C1c1ccc(C2CC2)cc1F)CCCC3` (centres unmarked) [Example 1.8.2, 2-((2-chloro-6-(oxazol-2-yl)pyridin-3-yl)oxy)-1-(1-(4-cyclopropyl-2-fluorophenyl)-3,4,6,7,8,9-hexahydroimi-dazo[1,2-a:5,4-c′]dipyridin-2(1H)-yl)ethanone] returned an IC50 of 0.017 µM.

`O=C(NC1CC1)c1ccc(OCC(=O)N2CCc3nc4n(c3C2c2ccc(OC(F)(F)F)cc2F)CCCC4)c(Cl)n1` (centres unmarked) [Example 1.20.1, 6-chloro-N-cyclopropyl-5-(2-(1-(2-fluoro-4-(trifluoromethoxy)phenyl)-3,4,6,7,8,9-hexahydroimidazo[1,2-a:5,4-c′]dipyridin-2(1H)-yl)-2-oxoethoxy)picolinamide] showed a half-inhibitory concentration (IC50) of 0.026 µM.

With `CCc1nc(NS(C)(=O)=O)ncc1OCC(=O)N1CCc2nc3n(c2C1c1ccc(Cl)cc1F)CCS3` (centres unmarked) [Example 4.1.10, N-(5-(2-(5-(4-chloro-2-fluorophenyl)-2,3,7,8-tetrahydrothiazolo[2′,3′:2,3]imidazo[4,5-c]pyridin-6(5H)-yl)-2-oxoethoxy)-4-ethylpyrimidin-2-yl)methanesulfonamide], the IC50 was 0.067 µM.

The compound `Cc1nc(C)c(C2c3c(nc4n3CCCC4)CCN2C(=O)COc2ccc(NS(C)(=O)=O)nc2Cl)s1` (centres unmarked) [Example 1.10.1, N-(6-chloro-5-(2-(1-(2,4-dimethylthiazol-5-yl)-3,4,6,7,8,9-hexahydroimidazo[1,2-a:5,4-c′]dipyridin-2(1H)-yl)-2-oxoethoxy)pyridin-2-yl)methanesulfonamide] displayed a concentration for half-maximal inhibition (IC50) of 0.012 µM.

The compound `CS(=O)(=O)Nc1ccc(OCC(=O)N2CCc3nc4n(c3[C@@H]2c2ccc(Cl)cc2F)CCCC4)c(Cl)n1` [Example 1.1.17, (S)-N-(6-chloro-5-(2-(1-(4-chloro-2-fluorophenyl)-3,4,6,7,8,9-hexahydroimidazo[1,2-a:5,4-c′]dipyridin-2(1H)-yl)-2-oxoethoxy)pyridin-2-yl)methanesulfonamide] displayed a half-inhibitory concentration (IC50) of 0.023 µM.

Compound `CS(=O)(=O)Nc1ccc(OCC(=O)N2CCc3nc4n(c3C2c2ncc(Cl)cc2F)CCOC4)c(Cl)n1` (centres unmarked) [Example 6.4.1, N-(6-chloro-5-(2-(6-(5-chloro-3-fluoropyridin-2-yl)-3,4,8,9-tetrahydro-1H-pyrido[4′,3′:4,5]imidazo[2,1-c][1,4]oxazin-7(6H)-yl)-2-oxoethoxy)pyridin-2-yl)methanesulfonamide] had an IC50 of 0.143 µM.

With `O=C(NC1CC1)c1ccc(OCC(=O)N2CCc3nc4n(c3C2c2ccc(C3CC3)cc2F)CCS4)c(Cl)n1` (centres unmarked) [Example 4.3.3, 6-chloro-N-cyclopropyl-5-(2-(5-(4-cyclopropyl-2-fluorophenyl)-2,3,7,8-tetrahydrothiazolo[2′,3′:2,3]imidazo[4,5-c]pyridin-6(5H)-yl)-2-oxoethoxy)picolinamide], the IC50 stood at 0.014 µM.

On to `CC(=O)N1CCn2c(nc3c2C(c2ccc(Cl)cc2F)N(C(=O)COc2ccc(C(=O)N(C)C)nc2Cl)CC3)C1` (centres unmarked) [Example 5.1.3, 5-(2-(7-acetyl-1-(4-chloro-2-fluorophenyl)-3,4,6,7,8,9-hexahydropyrido[4′,3′:4,5]imidazo[1,2-a]pyrazin-2(1H)-yl)-2-oxoethoxy)-6-chloro-N,N-dimethylpicolinamide], for which the IC50 is 0.011 µM.

`CCc1nc(NS(C)(=O)=O)ccc1OCC(=O)N1CCc2nc3n(c2[C@@H]1c1sc(C)nc1C)CCCC3` [Example 1.10.16, (R)-N-(5-(2-(1-(2,4-dimethylthiazol-5-yl)-3,4,6,7,8,9-hexahydroimidazo[1,2-a:5,4-c′]dipyridin-2(1H)-yl)-2-oxoethoxy)-6-ethylpyridin-2-yl)methanesulfonamide]: it took 0.006 µM to reach half-maximal inhibition (IC50).

In turn, `O=C(COc1ccc(N2CCOCC2)nc1Cl)N1CCc2nc3n(c2C1c1ccc(Cl)cc1F)CCCC3` (centres unmarked) [Example 1.1.2, 1-(1-(4-chloro-2-fluorophenyl)-3,4,6,7,8,9-hexahydro-imidazo[1,2-a:5,4-c′]dipyridin-2(1H)-yl)-2-((2-chloro-6-morpholinopyridin-3-yl)oxy)ethanone] returned an IC50 of 0.007 µM.

As to `CCc1nc(C(=O)NC2CC2)ccc1OCC(=O)N1CCc2nc3n(c2C1c1sccc1F)CCCC3` (centres unmarked) [Example 1.14.2, N-cyclopropyl-6-ethyl-5-(2-(1-(3-fluorothiophen-2-yl)-3,4,6,7,8,9-hexahydroimidazo[1,2-a:5,4-c′]dipyridin-2(1H)-yl)-2-oxoethoxy)picolinamide], the IC50 is 0.012 µM.

In the case of `CCc1nc(NS(C)(=O)=O)ccc1OCC(=O)N1CCc2nc3n(c2C1c1ccc(Cl)cc1F)CCCC3` (centres unmarked) [Example 1.1.11, N-(5-(2-(1-(4-chloro-2-fluorophenyl)-3,4,6,7,8,9-hexahydroimidazo[1,2-a:5,4-c′]dipyridin-2(1H)-yl)-2-oxoethoxy)-6-ethylpyridin-2-yl)methanesulfonamide], the IC50 was 0.008 µM.

Consider `Cc1ccc(C2c3c(nc4n3CCCC4)CCN2C(=O)COc2ccc(-c3ncco3)nc2Cl)c(F)c1F` (centres unmarked) [Example 1.9.1, 2-((2-chloro-6-(oxazol-2-yl)pyridin-3-yl)oxy)-1-(1-(2,3-difluoro-4-methylphenyl)-3,4,6,7,8,9-hexahydroimida-zo[1,2-a:5,4-c′]dipyridin-2(1H)-yl)ethanone], for which the midpoint of inhibition, the IC50, lay at 0.02 µM.

`CC(=O)N1CCn2c(nc3c2C(c2sc(C(=O)N(C)C)cc2F)N(C(=O)COc2ccc(C(=O)N(C)C)nc2Cl)CC3)C1` (centres unmarked) [Example 5.7.1, 5-(2-(7-acetyl-1-(5-(dimethylcarbamoyl)-3-fluorothiophen-2-yl)-3,4,6,7,8,9-hexahydropyrido[4′,3′:4,5]imidazo[1,2-a]pyrazin-2(1H)-yl)-2-oxoethoxy)-6-chloro-N,N-dimethylpicolinamide] showed an IC50 of 0.027 µM.

`CN(C)C(=O)c1ccc(OCC(=O)N2CCc3nc4n(c3C2c2ccc(Cl)cc2F)CCCC4)c(Cl)n1` (centres unmarked) [Example 1.1.1, 6-chloro-5-(2-(1-(4-chloro-2-fluorophenyl)-3,4,6,7,8,9-hexahydroimidazo[1,2-a:5,4-c′]dipyridin-2(1H)-yl)-2-oxoethoxy)-N,N-dimethylpicolinamide]: the IC50 turned out to be 0.015 µM.

In the case of `CCc1nc(NS(C)(=O)=O)ccc1OCC(=O)N1CCc2nc3n(c2[C@@H]1c1ccc(Cl)cc1F)CCCC3` [Example 1.1.18, (S)-N-(5-(2-(1-(4-chloro-2-fluorophenyl)-3,4,6,7,8,9-hexahydroimidazo[1,2-a:5,4-c′]dipyridin-2(1H)-yl)-2-oxoethoxy)-6-ethylpyridin-2-yl)methanesulfonamide], the IC50 was 0.008 µM.

With `CN(C)S(=O)(=O)c1ccc(OCC(=O)N2CCc3nc4n(c3C2c2ccc(Cl)cc2F)CCCC4)c(Cl)n1` (centres unmarked) [Example 1.1.29, 6-chloro-5-(2-(1-(4-chloro-2-fluorophenyl)-3,4,6,7,8,9-hexahydroimidazo[1,2-a:5,4-c′]dipyridin-2(1H)-yl)-2-oxoethoxy)-N,N-dimethylpyridine-2-sulfonamide], the concentration for half-maximal inhibition (IC50) turned out to be 0.129 µM.

Turning to `CC(=O)N1CCn2c(nc3c2C(c2ccc(C4CC4)cc2F)N(C(=O)COc2cc(F)cnc2Cl)CC3)C1` (centres unmarked) [Example 5.2.16, 1-(7-acetyl-1-(4-cyclopropyl-2-fluorophenyl)-3,4,6,7,8,9-hexahydropyrido[4′,3′:4,5]imidazo[1,2-a]pyrazin-2(1H)-yl)-2-((2-chloro-5-fluoropyridin-3-yl)oxy)ethanone], the IC50 stood at 0.025 µM.

The same assay, now with this note: Table 2.
The compound `CC(=O)N1CCn2c(nc3c2C(c2cc(C(=O)N(C)C)cs2)N(C(=O)COc2ccc(N4CCOCC4)nc2Cl)CC3)C1` (centres unmarked) [Example 5.3.2, 5-(7-Acetyl-2-(2-((2-chloro-6-morpholinopyridin-3-yl)oxy)acetyl)-1,2,3,4,6,7,8,9-octahydropyrido[4′,3′:4,5]imidazo[1,2-a]pyrazin-1-yl)-N,N-dimethylthiophene-3-carboxamide] yielded a concentration for half-maximal inhibition (IC50) of 0.035 µM.

As a reminder, the IC50 is the concentration that gives 50% inhibition. A low value points to inhibition by little substance.
